Laboratory results taken from US20230257372A1 (CHONG KUN DANG PHARMACEUTICAL CORP., priority 2020, published 2023).
Read-outs that look alike come from different tables or passages of the source.

Experiments:
human recombinant HDAC1 = target: T1, human recombinant HDAC1 (Homo sapiens, UniProt Q13547); assay: HDAC1 enzyme activity inhibition (HDAC Fluorimetric Drug Discovery Kit); assay type: biochemical; settings: read-out: HDAC1
T1 construct: purchased Enzo Life Science, Inc. BML-SE456
Procedure, shortened: (§1)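 Five-fold compound dilutions incubated with […] recombinant enzyme and 10 μM fluorogenic Fluor de Lys substrate, 60 min at 30° C. Fluor de Lys Developer II then added for 30 min to generate the fluorescent read-out.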

human recombinant HDAC6 = target: T2, human recombinant HDAC6 (Homo sapiens, UniProt Q9UBN7); assay: HDAC6 enzyme activity inhibition (HDAC Fluorimetric Drug Discovery Kit); assay type: biochemical
T2 construct: purchased Calbiochem Inc. 382180
T2 sequence (Q9UBN7 1-1215): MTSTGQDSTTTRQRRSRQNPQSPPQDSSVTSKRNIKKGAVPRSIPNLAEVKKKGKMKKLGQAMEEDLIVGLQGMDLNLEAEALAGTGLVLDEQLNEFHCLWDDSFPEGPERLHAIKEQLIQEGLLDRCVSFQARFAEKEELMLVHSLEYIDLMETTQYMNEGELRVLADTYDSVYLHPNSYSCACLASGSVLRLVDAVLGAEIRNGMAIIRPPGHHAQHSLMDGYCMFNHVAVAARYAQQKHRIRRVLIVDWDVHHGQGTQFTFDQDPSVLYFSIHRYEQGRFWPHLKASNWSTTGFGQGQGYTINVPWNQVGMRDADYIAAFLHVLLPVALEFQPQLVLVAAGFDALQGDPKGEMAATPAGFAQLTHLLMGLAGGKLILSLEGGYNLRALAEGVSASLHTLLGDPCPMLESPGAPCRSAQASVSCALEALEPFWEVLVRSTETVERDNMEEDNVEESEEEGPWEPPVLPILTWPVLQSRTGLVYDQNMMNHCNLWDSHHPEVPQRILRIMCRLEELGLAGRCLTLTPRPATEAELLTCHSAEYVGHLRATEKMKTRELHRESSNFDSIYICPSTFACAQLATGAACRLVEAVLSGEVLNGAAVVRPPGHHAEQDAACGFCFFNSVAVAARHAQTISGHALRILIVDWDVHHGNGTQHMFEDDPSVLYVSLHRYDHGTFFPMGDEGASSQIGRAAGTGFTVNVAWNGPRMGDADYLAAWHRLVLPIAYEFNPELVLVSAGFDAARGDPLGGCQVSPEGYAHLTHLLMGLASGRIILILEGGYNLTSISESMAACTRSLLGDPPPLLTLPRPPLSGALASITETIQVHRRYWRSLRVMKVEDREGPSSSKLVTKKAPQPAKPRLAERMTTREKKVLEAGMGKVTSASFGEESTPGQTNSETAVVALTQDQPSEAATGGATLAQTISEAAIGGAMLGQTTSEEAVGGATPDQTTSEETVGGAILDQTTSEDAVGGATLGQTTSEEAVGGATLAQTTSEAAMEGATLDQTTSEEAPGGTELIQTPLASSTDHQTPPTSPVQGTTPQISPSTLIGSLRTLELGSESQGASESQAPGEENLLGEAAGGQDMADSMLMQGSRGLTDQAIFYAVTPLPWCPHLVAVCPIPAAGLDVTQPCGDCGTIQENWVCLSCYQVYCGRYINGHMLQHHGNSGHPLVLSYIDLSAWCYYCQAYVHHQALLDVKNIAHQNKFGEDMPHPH
Procedure, shortened: as §1

[1] = human recombinant HDAC1, IC50 calculated with GraphPad Prism
[2] = human recombinant HDAC6, IC50 calculated with GraphPad Prism
[3] = human recombinant HDAC1, Fluor de Lys substrate, 30° C. 60 minutes
[4] = human recombinant HDAC6, same protocol as HDAC1

T1 sequence (Q13547 whole entry): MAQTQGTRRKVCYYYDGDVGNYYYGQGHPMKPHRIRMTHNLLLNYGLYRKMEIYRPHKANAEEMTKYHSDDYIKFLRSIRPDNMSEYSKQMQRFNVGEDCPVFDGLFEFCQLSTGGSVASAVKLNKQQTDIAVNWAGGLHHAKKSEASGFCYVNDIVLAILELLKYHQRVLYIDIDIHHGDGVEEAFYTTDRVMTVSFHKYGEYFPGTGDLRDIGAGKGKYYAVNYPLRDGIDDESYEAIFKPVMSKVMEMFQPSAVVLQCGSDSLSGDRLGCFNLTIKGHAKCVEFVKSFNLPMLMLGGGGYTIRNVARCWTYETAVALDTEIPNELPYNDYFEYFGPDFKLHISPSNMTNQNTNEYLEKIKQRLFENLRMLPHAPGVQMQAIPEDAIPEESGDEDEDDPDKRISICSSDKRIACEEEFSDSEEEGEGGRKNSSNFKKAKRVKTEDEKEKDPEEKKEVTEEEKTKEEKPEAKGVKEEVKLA

SMILES	IC50 (human recombinant HDAC1; [1]) [nM]	HDAC6 selectivity (fold) (human recombinant HDAC6; HDAC1 IC50 / HDAC6 IC50)	IC50 (human recombinant HDAC6; [2]) [nM]	IC50 (human recombinant HDAC1; [3]) [nM]	HDAC6 selectivity (fold) (human recombinant HDAC6; HDAC6 over HDAC1)	IC50 (human recombinant HDAC6; [4]) [nM]
FC(F)c1nnc(-c2ccc(Cn3cc(-c4cccc(CN5CCC(F)(F)CC5)c4)nn3)cc2)o1 [Compound 4413, 2-(difluoromethyl)-5-(4-((4-(3-((4,4-difluoropiperidin-1-yl)methyl)phenyl)-1H-1,2,3-triazol-1-yl)methyl)phenyl)-1,3,4-oxadiazole]	> 50000	348	144	–	–	–
CCN1Cc2cccc(-c3cn(Cc4ccc(-c5nnc(C(F)F)o5)cn4)nn3)c2C1 [Compound 4596, 2-(difluoromethyl)-5-(6-((4-(2-ethylisoindolin-4-yl)-1H-1,2,3-triazol-1-yl)methyl)pyridin-3-yl)-1,3,4-oxadiazole]	–	–	–	> 50000	782	63.9
Fc1cc(-c2nnc(C(F)F)o2)cnc1Cn1cc(-c2cccc3[nH]ccc23)nn1 [Compound 18921, 2-(6-((4-(1H-indol-4-yl)-1H-1,2,3-triazol-1-yl)methyl)-5-fluoropyridin-3-yl)-5-(difluoromethyl)-1,3,4-oxadiazole]	–	–	–	> 50000	1592	31.4
FC(F)c1nnc(-c2ccc(Cn3cc(-c4cccc(CN5CC(F)(F)C5)c4)nn3)nc2)o1 [Compound 4400, 2-(6-((4-(3-((3,3-difluoroazetidin-1-yl)methyl)phenyl)-1H-1,2,3-triazol-1-yl)methyl)pyridin-3-yl)-5-(difluoromethyl)-1,3,4-oxadiazole]	> 50000	1628	30.7	–	–	–
Fc1cc(-c2nnc(C(F)F)o2)ccc1Cn1cc(-c2cccc(N3CCN(C4COC4)CC3)n2)nn1 [Compound 17365, 2-(difluoromethyl)-5-(3-fluoro-4-((4-(6-(4-(oxetan-3-yl)piperazin-1-yl)pyridin-2-yl)-1H-1,2,3-triazol-1-yl)methyl)phenyl)-1,3,4-oxadiazole]	–	–	–	> 50000	1377	36.3
OCc1ccc(-c2cn(Cc3ccc(-c4nnc(C(F)F)o4)cc3F)nn2)nc1 [Compound 17545, (6-(1-(4-(5-(difluoromethyl)-1,3,4-oxadiazol-2-yl)-2-fluorobenzyl)-1H-1,2,3-triazol-4-yl)pyridin-3-yl)methanol]	–	–	–	> 50000	880	56.8
CC(C)N1Cc2cccc(-c3cn(Cc4ccc(-c5nnc(C(F)F)o5)cc4F)nn3)c2C1 [Compound 4536, 2-(difluoromethyl)-5-(3-fluoro-4-((4-(2-isopropylisoindolin-4-yl)-1H-1,2,3-triazol-1-yl)methyl)phenyl)-1,3,4-oxadiazole]	–	–	–	> 50000	572	87.4
FC(F)c1nnc(-c2ccc(Cn3cc(-c4ccc5[nH]cnc5c4)nn3)nc2)o1 [Compound 3843, 2-(6-((4-(1H-benzo[d]imidazol-5-yl)-1H-1,2,3-triazol-1-yl)methyl)pyridin-3-yl)-5-(difluoromethyl)-1,3,4-oxadiazole]	> 50000	5952	8.4	–	–	–
CC(C)N1CCN(C(=O)c2cccc(-c3cn(Cc4ccc(-c5nnc(C(F)F)o5)cn4)nn3)c2)CC1 [Compound 4448, (3-(1-((5-(5-(difluoromethyl)-1,3,4-oxadiazol-2-yl)pyridin-2-yl)methyl)-1H-1,2,3-triazol-4-yl)phenyl)(4-isopropylpiperazin-1-yl)methanone]	> 50000	2873	17.4	–	–	–
CC(C)N1CC(c2cccc(-c3cn(Cc4ccc(-c5nnc(C(F)F)o5)cc4)nn3)c2)C1 [Compound 4509, 2-(difluoromethyl)-5-(4-((4-(3-(1-isopropylazetidin-3-yl)phenyl)-1H-1,2,3-triazol-1-yl)methyl)phenyl)-1,3,4-oxadiazole]	–	–	–	> 50000	2392	20.9
Fc1cc(-c2nnc(C(F)F)o2)ccc1Cn1cc(-c2ccccn2)nn1 [Compound 18256, 2-(difluoromethyl)-5-(3-fluoro-4-((4-(pyridin-2-yl)-1H-1,2,3-triazol-1-yl)methyl)phenyl)-1,3,4-oxadiazole]	–	–	–	> 50000	1144	43.7
CC(C)(C)OC(=O)N1CCC(c2cccc(-c3cn(Cc4ncc(-c5nnc(C(F)F)o5)cc4F)nn3)c2)CC1 [Compound 18868, tert-butyl 4-(3-(1-((5-(5-(difluoromethyl)-1,3,4-oxadiazol-2-yl)-3-fluoropyridin-2-yl)methyl)-1H-1,2,3-triazol-4-yl)phenyl)piperidin-1-carboxylate]	–	–	–	> 50000	90	551
CN(C)C1CCN(Cc2ccc(-c3cn(Cc4ccc(-c5nnc(C(F)F)o5)cc4)nn3)cc2)CC1 [Compound 4554, 1-(4-(1-(4-(5-(difluoromethyl)-1,3,4-oxadiazol-2-yl)benzyl)-1H-1,2,3-triazol-4-yl)benzyl)-N,N-dimethylpiperidin-4-amine]	–	–	–	> 50000	773	64.6
C[C@@H]1CN(c2cccc(-c3cn(Cc4ncc(-c5nnc(C(F)F)o5)cc4F)nn3)c2)C[C@H](C)N1 [Compound 18893, 2-(difluoromethyl)-5-(6-((4-(3-((3R,5S)-3,5-dimethylpiperazin-1-yl)phenyl)-1H-1,2,3-triazol-1-yl)methyl)-5-fluoropyridin-3-yl)-1,3,4-oxadiazole]	–	–	–	> 50000	388	129
Fc1cc(-c2nnc(C(F)F)o2)cnc1Cn1cc(-c2cccc(C3CCN(C4COC4)CC3)c2)nn1 [Compound 18871, 2-(difluoromethyl)-5-(5-fluoro-6-((4-(3-(1-(oxetan-3-yl)piperidin-4-yl)phenyl)-1H-1,2,3-triazol-1-yl)methyl)pyridin-3-yl)-1,3,4-oxadiazole]	–	–	–	> 50000	675	74
OCCCCc1cn(Cc2ccc(-c3nnc(C(F)F)o3)cn2)nn1 [Compound 3834, 4-(1-((5-(5-(difluoromethyl)-1,3,4-oxadiazol-2-yl)pyridin-2-yl)methyl)-1H-1,2,3-triazol-4-yl)butan-1-ol]	> 50000	217	238	–	–	–
CN(C)[C@H]1CCN(Cc2ccc(-c3cn(Cc4ccc(-c5nnc(C(F)F)o5)cc4F)nn3)cc2)C1 [Compound 4604, (S)-1-(4-(1-(4-(5-(difluoromethyl)-1,3,4-oxadiazol-2-yl)-2-fluorobenzyl)-1H-1,2,3-triazol-4-yl)benzyl)-N,N-dimethylpyrrolidin-3-amine]	–	–	–	> 50000	2347	21.3
Fc1cc(-c2nnc(C(F)F)o2)ccc1Cn1cc(-c2cccc3c2CN(C2COC2)C3)nn1 [Compound 4538, 2-(difluoromethyl)-5-(3-fluoro-4-((4-(2-(oxetan-3-yl)isoindolin-4-yl)-1H-1,2,3-triazol-1-yl)methyl)phenyl)-1,3,4-oxadiazole]	–	–	–	> 50000	539	92.7
O=C(O)c1cccc(-c2cn(Cc3ccc(-c4nnc(C(F)F)o4)cn3)nn2)c1 [Compound 3739]	> 50000	782	63.9	–	–	–
CC(C)N1CCC(Nc2ccc(F)c(-c3cn(Cc4ccc(-c5nnc(C(F)F)o5)cc4F)nn3)c2)CC1 [Compound 4436, N-(3-(1-(4-(5-(difluoromethyl)-1,3,4-oxadiazol-2-yl)-2-fluorobenzyl)-1H-1,2,3-triazol-4-yl)-4-fluorophenyl)-1-isopropylpiperidin-4-amine]	> 50000	1369	36.5	–	–	–
